Measured values reported in ChEMBL document CHEMBL3526087, “Inhibition of human sterol Δ7-reductase and other postlanosterol enzymes by LK-980, a novel inhibitor of cholesterol synthesis” (Drug Metab Dispos, 2011).

Experiments:
[1] = target: T1, 3-hydroxy-3-methylglutaryl-coenzyme A reductase (Homo sapiens) (UniProt P04035); assay: Inhibition of HMGCR activity in human hepatocytes assessed as increase in 7-dehydrocholesterol level per gram of protein by GC-MS analysis (reference value: 16.3 ug); format: cell-based; conditions: Hepatocyte
T1 sequence (whole entry): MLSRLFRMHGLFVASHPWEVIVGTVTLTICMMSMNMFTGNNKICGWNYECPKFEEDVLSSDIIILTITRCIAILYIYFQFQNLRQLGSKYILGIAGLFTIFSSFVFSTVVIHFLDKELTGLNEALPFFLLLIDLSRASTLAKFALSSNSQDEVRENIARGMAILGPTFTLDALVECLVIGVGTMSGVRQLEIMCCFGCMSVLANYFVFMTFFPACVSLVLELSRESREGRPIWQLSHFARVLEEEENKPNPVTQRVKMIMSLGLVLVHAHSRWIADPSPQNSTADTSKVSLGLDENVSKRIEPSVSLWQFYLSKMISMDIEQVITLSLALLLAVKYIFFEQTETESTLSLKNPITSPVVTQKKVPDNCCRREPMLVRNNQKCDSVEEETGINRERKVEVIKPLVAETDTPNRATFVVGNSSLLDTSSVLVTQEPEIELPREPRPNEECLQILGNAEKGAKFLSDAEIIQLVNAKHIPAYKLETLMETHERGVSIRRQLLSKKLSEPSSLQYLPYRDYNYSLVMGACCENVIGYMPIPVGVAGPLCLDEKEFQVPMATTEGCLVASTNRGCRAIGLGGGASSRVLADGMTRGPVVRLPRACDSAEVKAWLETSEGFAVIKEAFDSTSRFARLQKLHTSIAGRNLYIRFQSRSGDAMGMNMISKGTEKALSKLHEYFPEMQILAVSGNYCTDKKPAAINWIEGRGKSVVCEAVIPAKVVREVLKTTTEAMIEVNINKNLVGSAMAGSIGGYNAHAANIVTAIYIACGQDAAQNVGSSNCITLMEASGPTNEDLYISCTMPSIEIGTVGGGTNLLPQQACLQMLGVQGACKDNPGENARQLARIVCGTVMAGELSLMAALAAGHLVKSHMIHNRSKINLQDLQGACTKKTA

[2] = target: T1, 3-hydroxy-3-methylglutaryl-coenzyme A reductase (Homo sapiens); assay: Inhibition of HMGCR activity in human hepatocytes assessed as increase in desmosterol level per gram of protein by GC-MS analysis (reference value: 5.5 ug); format: cell-based; conditions: Hepatocyte
[3] = target: T1, 3-hydroxy-3-methylglutaryl-coenzyme A reductase (Homo sapiens); assay: Inhibition of HMGCR activity in human hepatocytes assessed as increase in lathosterol level per gram of protein by GC-MS analysis (reference value: 47.7 ug); format: cell-based; conditions: Hepatocyte
[4] = target: T1, 3-hydroxy-3-methylglutaryl-coenzyme A reductase (Homo sapiens); assay: Inhibition of HMGCR activity in human hepatocytes assessed as increase in FF-MAS level per gram of protein by GC-MS analysis (reference value: 0.7 ug); format: cell-based; conditions: Hepatocyte
[5] = target: T1, 3-hydroxy-3-methylglutaryl-coenzyme A reductase (Homo sapiens); assay: Inhibition of HMGCR activity in human hepatocytes assessed as mevalonate formed per mg of protein at 100 uM by GC-MS analysis (reference value: 69 9 pmol/min); format: cell-based; conditions: Hepatocyte
[6] = system: Hepatocyte; assay: Effect on CYP3A4 mRNA expression in human hepatocytes at 10 uM after 12 to 48 hrs by RT-PCR analysis; format: ADME, cell-based
[7] = target: T2, 7-dehydrocholesterol reductase (Homo sapiens) (UniProt Q9UBM7); assay: Inhibition of DHCR7 activity in human hepatocytes assessed as increase in 7-dehydrocholesterol level per gram of protein by GC-MS analysis (reference value: 16.3 ug); format: cell-based; conditions: Hepatocyte
T2 sequence (whole entry): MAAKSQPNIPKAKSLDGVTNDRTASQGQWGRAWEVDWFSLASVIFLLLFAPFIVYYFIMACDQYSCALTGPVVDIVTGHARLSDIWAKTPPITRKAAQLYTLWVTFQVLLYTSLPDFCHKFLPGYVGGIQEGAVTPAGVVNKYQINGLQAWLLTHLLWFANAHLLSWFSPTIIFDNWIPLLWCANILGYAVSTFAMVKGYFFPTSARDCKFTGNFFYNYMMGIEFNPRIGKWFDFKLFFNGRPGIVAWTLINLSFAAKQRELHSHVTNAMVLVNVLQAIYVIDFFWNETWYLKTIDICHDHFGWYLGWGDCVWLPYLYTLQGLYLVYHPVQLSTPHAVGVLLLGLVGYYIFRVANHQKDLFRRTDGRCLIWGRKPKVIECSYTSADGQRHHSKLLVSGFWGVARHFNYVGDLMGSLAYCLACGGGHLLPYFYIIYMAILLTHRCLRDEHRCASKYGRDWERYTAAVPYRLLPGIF

[8] = target: T3, Delta(24)-sterol reductase (Homo sapiens) (UniProt Q15392); assay: Inhibition of DHCR24 activity in human hepatocytes assessed as increase in desmosterol level per gram of protein by GC-MS analysis (reference value: 5.5 ug); format: cell-based; conditions: Hepatocyte
T3 sequence (whole entry): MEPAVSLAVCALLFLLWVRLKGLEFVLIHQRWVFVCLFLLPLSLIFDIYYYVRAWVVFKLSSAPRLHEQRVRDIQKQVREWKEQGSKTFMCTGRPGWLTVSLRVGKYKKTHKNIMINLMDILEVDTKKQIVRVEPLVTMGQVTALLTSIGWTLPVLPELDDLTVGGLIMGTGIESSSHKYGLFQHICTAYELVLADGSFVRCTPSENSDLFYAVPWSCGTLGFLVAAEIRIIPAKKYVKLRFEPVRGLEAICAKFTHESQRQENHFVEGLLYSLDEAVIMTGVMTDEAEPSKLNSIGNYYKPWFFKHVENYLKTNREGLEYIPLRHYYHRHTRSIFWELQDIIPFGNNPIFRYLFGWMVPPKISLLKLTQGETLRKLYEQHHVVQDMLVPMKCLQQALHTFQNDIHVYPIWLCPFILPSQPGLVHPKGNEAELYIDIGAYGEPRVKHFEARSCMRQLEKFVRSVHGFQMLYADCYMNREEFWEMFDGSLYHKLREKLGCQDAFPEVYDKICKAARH

[9] = target: T4, Lathosterol oxidase (Homo sapiens) (UniProt O75845); assay: Inhibition of SC5DL activity in human hepatocytes assessed as increase in lathosterol level per gram of protein by GC-MS analysis (reference value: 47.7 ug); format: cell-based; conditions: Hepatocyte
T4 sequence (whole entry): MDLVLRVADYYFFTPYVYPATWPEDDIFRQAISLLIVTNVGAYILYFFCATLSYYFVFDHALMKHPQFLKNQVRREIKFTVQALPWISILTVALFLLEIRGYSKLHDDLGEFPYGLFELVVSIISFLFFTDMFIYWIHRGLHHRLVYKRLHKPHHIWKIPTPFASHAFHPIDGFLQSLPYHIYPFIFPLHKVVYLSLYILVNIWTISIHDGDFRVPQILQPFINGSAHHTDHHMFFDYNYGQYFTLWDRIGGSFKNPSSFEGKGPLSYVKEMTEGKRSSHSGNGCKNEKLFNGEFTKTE

[10] = target: T5, Delta(14)-sterol reductase TM7SF2 (Homo sapiens) (UniProt O76062); assay: Inhibition of DHCR14 activity in human hepatocytes assessed as increase in FF-MAS level per gram of protein by GC-MS analysis (reference value: 0.7 ug); format: cell-based; conditions: Hepatocyte
T5 sequence (whole entry): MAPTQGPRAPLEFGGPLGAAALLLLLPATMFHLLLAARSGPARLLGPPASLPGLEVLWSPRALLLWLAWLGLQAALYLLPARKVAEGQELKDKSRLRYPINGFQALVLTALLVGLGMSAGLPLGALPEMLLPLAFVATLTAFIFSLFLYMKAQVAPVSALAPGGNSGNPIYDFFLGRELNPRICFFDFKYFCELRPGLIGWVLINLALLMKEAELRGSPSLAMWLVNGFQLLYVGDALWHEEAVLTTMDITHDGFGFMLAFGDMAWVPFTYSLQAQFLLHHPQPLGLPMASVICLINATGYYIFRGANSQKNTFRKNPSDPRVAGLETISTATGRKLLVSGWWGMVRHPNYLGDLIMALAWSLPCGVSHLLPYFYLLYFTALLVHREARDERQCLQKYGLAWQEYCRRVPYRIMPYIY

[11] = target: Cytochrome P450 3A4 (Homo sapiens, UniProt P08684); assay: Effect on CYP3A4 in human hepatocytes assessed as nifedipine oxidation activity using nifedipine as substrate at 10 uM; format: ADME, cell-based, Hepatocyte
Chain of Cytochrome P450 3A4 (P08684 whole entry): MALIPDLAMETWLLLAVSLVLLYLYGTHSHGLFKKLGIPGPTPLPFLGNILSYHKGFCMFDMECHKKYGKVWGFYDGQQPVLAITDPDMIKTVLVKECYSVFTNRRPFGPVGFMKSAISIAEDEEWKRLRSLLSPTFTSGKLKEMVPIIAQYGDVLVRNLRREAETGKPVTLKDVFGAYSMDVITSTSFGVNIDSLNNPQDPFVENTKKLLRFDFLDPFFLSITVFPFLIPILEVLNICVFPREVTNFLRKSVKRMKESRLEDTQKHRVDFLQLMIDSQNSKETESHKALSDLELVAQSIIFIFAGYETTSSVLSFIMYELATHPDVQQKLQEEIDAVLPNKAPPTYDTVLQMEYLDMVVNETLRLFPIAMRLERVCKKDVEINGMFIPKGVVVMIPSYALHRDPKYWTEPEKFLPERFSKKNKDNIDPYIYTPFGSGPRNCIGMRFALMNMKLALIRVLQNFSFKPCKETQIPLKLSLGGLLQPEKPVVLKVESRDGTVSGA

Activity [1] [µg] | Activity [2] [µg] | Activity [3] [µg] | Activity [4] [µg] | Activity [5] [pmol/min] | Activity [7] [µg] | Activity [8] [µg] | Activity [9] [µg] | Activity [10] [µg] | SMILES | Activity [6] | Activity [11]
15.8 | 2.7 | 25.8 | 0.3 |  |  |  |  |  | CC(C)c1c(C(=O)Nc2ccccc2)c(-c2ccccc2)c(-c2ccc(F)cc2)n1CC[C@@H](O)C[C@@H](O)CC(=O)O |  | 
 |  |  |  | 76 | 556 | 10.1 | 119 | 2.9 | OC(CN1CCN(CCc2ccccc2)CC1)c1cccnc1 (stereo unspecified) | Non-toxic | Non-toxic
